Results taken from PubChem BioAssay (NCI).
Several values for one entry are separate records, joined by “and”; a condition that tells them apart may be missing. Equal entries are not always repeated.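 Interpolation was linear, between the two tested concentrations surrounding the appropriate level; five concentrations were tested over 48 hours in 96-well plates. Here, GI50 denotes the concentration required for 50% inhibition of growth. TGI is the concentration that stops growth completely.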

Columns and labels:
Experiment in all cases: NCI anticancer screen, dose series, 48 h
SK-MEL-2 melanoma = tested on: SK-MEL-2 melanoma
UACC-257 melanoma = tested on: UACC-257 melanoma
SK-OV-3 ovarian = tested on: SK-OV-3 ovarian
UACC-62 melanoma = tested on: UACC-62 melanoma
A549 NSCLC = tested on: A549 NSCLC
MDA-MB-231 breast = tested on: MDA-MB-231 breast
MDA-MB-435 = tested on: MDA-MB-435
DU-145 prostate = tested on: DU-145 prostate
786-0 renal = tested on: 786-0 renal
OVCAR-5 ovarian = tested on: OVCAR-5 ovarian

SMILES | GI50 (SK-MEL-2 melanoma) | TGI (SK-MEL-2 melanoma) | GI50 (UACC-257 melanoma) | TGI (UACC-257 melanoma) | GI50 (SK-OV-3 ovarian) | TGI (SK-OV-3 ovarian) | GI50 (UACC-62 melanoma) | TGI (UACC-62 melanoma) | GI50 (A549 NSCLC) | TGI (A549 NSCLC) | GI50 (MDA-MB-231 breast) | TGI (MDA-MB-231 breast) | GI50 (MDA-MB-435) | TGI (MDA-MB-435) | GI50 (DU-145 prostate) | TGI (DU-145 prostate) | GI50 (786-0 renal) | TGI (786-0 renal) | GI50 (OVCAR-5 ovarian) | TGI (OVCAR-5 ovarian)
CCN1CCN(CC(=O)Nc2nc3ccc(NCc4ccc(C)cc4)cc3s2)CC1 | 5.53 µM | 12.8 µM | 3.33 µM | 11.3 µM | 4.12 µM | 12.4 µM | 1.01 µM | 2.06 µM | 2.29 µM | 8.61 µM | 2.72 µM | 10 µM | 1.05 µM | 2.3 µM | 7.97 µM | 16.4 µM | 4.24 µM | 10.9 µM | 5.63 µM | 13.4 µM
COC(=O)c1c2c(c(C)[n+]([O-])c1C)C(=O)C=C(NCc1ccc(Br)cc1)C2=O | 1.55 µM | 4.13 µM | 0.229 µM | 0.907 µM | 1.52 µM | 3.41 µM | 0.0438 µM | 1.09 µM | 0.705 µM | 2.74 µM | 0.3 µM | 3.82 µM | 0.095 µM | 0.243 µM | 0.871 µM | 2.26 µM | 0.637 µM | 2.23 µM | 1.33 µM | 2.83 µM
O=C(O)c1ccccc1-c1ccccc1C(=O)Nc1ccc2c(c1)Cc1ccccc1-2 |  | 50.7 µM |  | 78.3 µM |  | > 100 µM |  | 32 µM |  | 97.5 µM |  | > 100 µM |  | > 100 µM |  | > 100 µM |  | > 100 µM |  | 49.2 µM
Cc1cn(C2CC(N=[N+]=[N-])C(CO)O2)c(=O)[nH]c1=O (configuration not stated) | > 1000 µM | > 1000 µM | > 1000 µM | > 1000 µM | > 1000 µM | > 1000 µM |  | > 1000 µM | 325 µM | > 1000 µM | > 1000 µM | > 1000 µM |  | > 1000 µM |  | > 1000 µM | > 1000 µM | > 1000 µM | > 1000 µM | > 1000 µM
O=C1NC(=O)C(N2CCc3ccccc32)=C1c1ccc(Cl)cc1 | > 25 µM | > 25 µM | > 25 µM | > 25 µM | > 25 µM | > 25 µM | 24.8 µM | > 25 µM | > 25 µM | > 25 µM | > 25 µM | > 25 µM | > 25 µM | > 25 µM | > 25 µM | > 25 µM | > 10 µM | > 14.5 µM | > 25 µM | > 25 µM
Nc1nc2c(c(=O)[nH]1)N=C(COP(=O)(O)OP(=O)(O)O)CN2 |  | > 100 µM |  | > 100 µM |  | > 100 µM |  | > 100 µM |  | > 100 µM |  | > 100 µM |  | > 100 µM |  | > 100 µM |  | > 100 µM |  | > 100 µM
NS(=O)(=O)c1cccc(-c2cc3ccncc3cc2OCc2ccccc2)c1 | 7.43 µM | > 19.6 µM | 7.76 µM | > 25 µM | > 18.5 µM | > 25 µM | 9.76 µM | > 25 µM | 10.3 µM | > 25 µM | 7.37 µM | > 23.9 µM | 12.7 µM | > 25 µM | 17.1 µM | > 25 µM | 7.37 µM | > 20.7 µM | 14.8 µM | > 25 µM
Cc1cc(Br)c2nsnc2c1[N+](=O)[O-] | 3.45 µM | 8.89 µM | 3.87 µM | 10.9 µM | 13.5 µM | 26.4 µM | 7.13 µM | 20 µM | 4.13 µM | 17.3 µM | 5.01 µM | 15.6 µM | 2.86 µM | 11.1 µM | 1.66 µM | 3.09 µM | 3.96 µM | 13.7 µM | 4.55 µM | 15.9 µM
Nc1cccc2c1CN(C1CCC(=O)NC1=O)C2=O (configuration not stated) | > 100 µM | > 100 µM | > 100 µM | > 100 µM | > 100 µM | > 100 µM | > 100 µM | > 100 µM | > 100 µM | > 100 µM | > 100 µM | > 100 µM | > 100 µM | > 100 µM | > 100 µM | > 100 µM | > 100 µM | > 100 µM | > 100 µM | > 100 µM
O=C1c2ccccc2C(=O)c2c(NCCNCCO)ccc(NCCNCCO)c21 | 2.22 µM and 2.7 µM and 2.09 µM | 5.79 µM and 16.7 µM and 3.77 µM | 4.72 µM and 6.86 µM and 6.63 µM | 14.2 µM and 27.9 µM and 24.7 µM | 1.26 µM and 1.45 µM and 2.06 µM | 11.5 µM and 9.32 µM and 11.8 µM | 1.03 µM and 1.2 µM and 1.06 µM | 4.25 µM and 4.33 µM and 2.97 µM | 0.195 µM and 0.183 µM and 0.123 µM | 6.92 µM and 9.37 µM and 6.34 µM | 1.56 µM and 1.63 µM and 1.52 µM | 5.85 µM and 6.54 µM and 4.47 µM | 2.43 µM and 3.09 µM and 1.95 µM | 7.22 µM and 13.2 µM and 6.06 µM | 0.718 µM and 1.41 µM and 1.29 µM | 4.89 µM and 8.28 µM and 8.69 µM | 0.757 µM and 1.69 µM and 1.18 µM | 4.66 µM and 14.3 µM and 12.9 µM | 2.5 µM and 2.29 µM and 2.35 µM | 9.5 µM and 10.9 µM and 11.5 µM
O=[N+]([O-])c1ccc(N/N=C/c2ccccc2O)nc1 | 3 µM | > 100 µM | 3.13 µM | 25 µM | 2.54 µM | > 100 µM | 2.61 µM | 11.6 µM | 2.07 µM | > 100 µM | 1.46 µM | > 100 µM | 3.03 µM | > 100 µM | 1.35 µM | > 100 µM | 3.03 µM | > 100 µM | 7.33 µM | > 100 µM
CC(=O)Nc1c(I)c(C(=O)O)c(I)c(N(C)C(C)=O)c1I | > 100 µM | > 100 µM | > 100 µM | > 100 µM | > 100 µM | > 100 µM | > 100 µM | > 100 µM | > 100 µM | > 100 µM | > 100 µM | > 100 µM | > 100 µM | > 100 µM | > 100 µM | > 100 µM | > 100 µM | > 100 µM | > 100 µM | > 100 µM
COc1ccc(Oc2nc(Nc3ccc(N4CCOCC4)cc3)ncc2NC(=O)Nc2cc(OC)cc(OC)c2)cc1 | 4.11 µM | 15.9 µM | 5.47 µM | 23.8 µM | 7.86 µM | 25.6 µM | 1.99 µM | 7.41 µM | 1.86 µM | 12.5 µM | 0.992 µM | 3.33 µM | 2.33 µM | 17.1 µM | 1.66 µM | 7.59 µM | 1.31 µM | 5.74 µM | 11.6 µM | > 33.3 µM
